According to patent US20220110963A1, “REVERSE TRANSCRIPTASE BLOCKING AGENTS AND METHODS OF USING THE SAME” (The General Hospital Corporation, priority 2019, published 2022):
“Also recorded” adds a separate entry of the source. Where two headings read alike, the source gives them in different places. l = locked nucleic acid (LNA); d = 2'-deoxy (DNA)

Assays:
SW620 cells = experiment: SW620 3D tumorsphere cell death / viability (CellTiter-Glo); type: cell-based, human; conditions: for NRTI-induced cell death: NRTI 5 μM, CellTiter-Glo
Protocol: For experiments using shRNAs specifically targeting RIPK3, SW620 cells were transduced with a plko based lentiviral vector encoding either a non-targeting scrambled shRNA (shNT) (see FIG. 11A), or 3 different shRNAs targeting RIPK3 (shRNA for RIPK3 sequences: […] ID NO: 7); […] ID NO:8); […] ID NO: 9) (see FIGS. 11B-11D). Cells were grown as 3D tumorspheres in an ultra-low attachment 96 well plate and treated either with NRTIs or with DMSO. Cellular viability was analyzed using the CellTiter-Glo© Assay (PROMEGA) 5 days post-treatment. […] For experiments using the RIPK1 inhibitor necrostatin-1, SW620 cells were either transfected either with scrambled non-targeting […] ID NO: 5)) or an LNA targeting [NT]3' (SEQ ID NO: 10; *=phosphorothioate bond; +=locked nucleic acid base)) using Lipofectamine© and treated with DMSO (control) or 10 μM necrostatin-1 (FIG. 12A), or treated either with DMSO or 5 μM ddC in the presence or absence of 10 μM necrostatin-1 (FIG. 12B). Cells were seeded and grown as 3D tumorspheres in an ultra low attachment 96 well plate 1 day after transfection.

HSATII RNA = experiment: Northern blot of HSATII RNA from HCT 116 xenografts of treated mice; type: in vivo; conditions: 25 mg/kg, vs vehicle (DMSO)
Source text: Previous studies have shown that HSATII RNA has a high degree of sequence similarity with viral RNA, and the presence of this RNA can trigger an innate immune response in cells similar to that which is seen in response to infection by viruses (Tanne et al. (2015) Proc. Natl. Acad. Sci. U.S.A. 112(49): 15154-9). HSATII RNA is also reverse transcribed and reintegrated into the genome, which leads to genomic expansion (Bersani et al. (2015) Proc. Natl. Acad. Sci. U.S.A. 112(49): 15148-53). This behavior is not commonly associated with mammalian RNA, but is a defining feature of retroviruses such as the human immunodeficiency virus (HIV). It is widely accepted that in retroviruses one of the functions of reverse transcription is to escape detection by the innate immune system in infected cells, as DNA is less immunogenic than RNA. For example, the reverse transcribed DNA of HIV is integrated into the host genome, making it undetectable by the immune system. Thus, it is possible that HSATII reverse transcription plays a similar functional role in cancer cells. To test this hypothesis, cancer cell lines were treated with antiretroviral nucleoside reverse transcriptase inhibitors (NRTIs) to target HSATII. The NRTI dideoxycytidine (ddC) was administered to mice having HCT 116 xenografts at a dose of 25 mg/kg. […] RNA was purified and analyzed by Northern blot. […]

HCT116 cells = experiment: Cell swelling (necroptosis) in 2D HCT116 cells transfected with ectopic HSATII RNA; type: cell-based, human; conditions: HCT116 2D, transfected with in vitro synthesized HSATII RNA; NRTIs alone or in combination
Protocol: Briefly, HCT116 cells were grown on standard 2D adherent cell culture plates. Cells were transfected with ectopic in vitro synthesized HSATII, and treated with either DMSO (vehicle control), or with the NRTIs ddC and d4T either alone or in combination. Cell morphology was analyzed using microscopy. Cell swelling was confirmed as an indication of necroptosis.

[1] = tested on: colorectal cancer cell lines grown as 3D tumorspheres; experiment: Colorectal cancer cell line panel grown as 3D tumorspheres, viability with NRTIs, AZA, LNAs; type: cell-based, human; conditions: SW620, DLD1, HCT8, HCT116 cells; RIPK1 inhibition
Protocol: FIGS. 21A-21B show TP53-mutant or wildtype CRC cell lines are treated with a panel of clinically approved NRTIs (5 μM) alone (FIG. 21A) or with 300 nM AZA (FIG. 21). Cell viability is measured using Cell-titer Glow assay at treatment day 7, and represented as Relative Tumoursphere (%) normalized to DMSO.
As described above, some cancer cell lines appear to be refractory to treatment with an NRTI (e.g., the Microsatellite Stable (MSS) colorectal cancer cell lines SW620 and DLD-1, see Example 1). To determine whether activation of satellite transcription using the DNA hypomethylating agent 5′-azacytidine (Aza) could render MSS colorectal cancer cell lines sensitive to NRTI treatment, the following experiment was performed. Briefly, human colorectal cancer cell lines were grown as 3D tumorspheres in ultra-low attachment 96 well plates and treated either with DMSO or with 5 μM of NRTI in the presence of 300 nM Aza. A control sample (DMSO) without Aza or NRTI was also included. Cell viability was analyzed using the CellTiter-Glo® Assay (PROMEGA) 5 days after treatment initiation.
To determine the generalizability of NRTI anti-neoplastic effects, a panel of 9 NRTIs encompassing analogues for each of the nucleosides on a set of 12 colorectal cancer (CRC) cell lines was tested. […]

[2] = tested on: metastatic CRC with TP53 mutations
DLD1 = DLD1 3D tumorsphere cell death / growth; type: cell-based, human; conditions: DLD1 (MSS) grown as 3D tumorspheres, LNA treatment
Source text: P-value by Welch's t-test. ** p=0.0063. **** p<0.0001 This finding is consistent with our other data pointing towards HERV-K as the endogenous reverse transcriptase (see Example 3).

Nc1ccn([C@H]2CC[C@@H](CO)O2)c(=O)n1 [ddC, 2′,3′-dideoxycytidine]
NRTI-induced cell death (SW620 cells; SW620 3D tumorspheres): tumor cell death induced
HSATII RNA signal (Northern blot) (HSATII RNA): accumulation of HSATII RNA; also recorded: increase of total HSATII signal
cell swelling (indicator of necroptosis) (HCT116 cells): cellular swelling was enhanced

CN1C(=O)C(Cc2c[nH]c3ccccc23)NC1=S (stereo not shown) [necrostatin-1]
rescue of cell death induced by HSATII-specific LNA (SW620 cells; SW620 3D tumorspheres, 10 μM necrostatin-1): prevented tumor cell death
rescue of cell death induced by ddC (SW620 cells; SW620 3D tumorspheres, 10 μM necrostatin-1, 5 μM ddC): prevented tumor cell death
rescue from NRTI and AZA mediated toxicity [1]: sufficient to rescue cell lines from NRTI and AZA mediated toxicity

Nc1ccn([C@@H]2CS[C@H](CO)O2)c(=O)n1 [3TC, lamivudine]
dose limiting toxicity ([2]; metastatic cancer patients): lack of significant dose limiting toxicity
disease stability ([2]; patient 8): 168 days
disease stability ([2]; patient 11): 110 days
median progression free survival ([2]; patients with stable disease on single agent 3TC): 159 days
patients with stable disease ([2]; single agent 3TC, 24 patients): 21%

Nc1nc(NC2CC2)c2ncn([C@H]3C=C[C@@H](CO)C3)c2n1 [ABC, abacavir]
NRTI-induced cell death (SW620 cells; SW620 3D tumorspheres): cell death induced

C=C1[C@H](CO)[C@@H](O)C[C@@H]1n1cnc2c(=O)[nH]c(N)nc21 [ETV, entecavir]
NRTI-induced cell death (SW620 cells; SW620 3D tumorspheres): cell death induced

5′-+A*+T*+G*+G*A*A*T*C*A*T*C*A*T*+C*+G*+A*+A-3′ (ATGGAATCATCATCGAA; sugars from the 5' end l4 d9 l4, all phosphorothioate, methylation of C not given here) [HSATII LNA2]
cell death (SW620 cells; SW620 (MSS) grown as 3D tumorspheres, LNA treatment): induces cell death
cell death (DLD1): induces cell death

Cc1cn([C@H]2C=C[C@@H](CO)O2)c(=O)[nH]c1=O [d4T, stavudine]
cell swelling (indicator of necroptosis) (HCT116 cells): cellular swelling was enhanced
